Like-named read-outs stand apart in the source and are kept apart here.
How the values were obtained:
SK-BR3 = assay: SRB colorimetric cell growth inhibition assay; settings: for GI50 / CC50: Homo sapiens, SK-BR-3, 48 h; for CC50: read-out: LC50; for TGI: SK-BR3, breast, 48 hours exposure
IGROV = assay: SRB colorimetric cell growth inhibition assay; settings: for GI50 / CC50: Homo sapiens, 48 h; for CC50: read-out: LC50; for TGI: ovary, 48 hours exposure
LOVO = assay: SRB colorimetric cell growth inhibition assay; settings: for GI50 / CC50: Homo sapiens, LoVo, 48 h; for CC50: read-out: LC50; for TGI: LOVO, colon, 48 hours exposure
LN-caP = assay: SRB colorimetric cell growth inhibition assay
DU-145 = assay: SRB colorimetric cell growth inhibition assay; settings: for TGI: DU-145, prostate, 48 hours exposure; for GI50 / CC50: Homo sapiens, DU-145, 48 h; for CC50: read-out: LC50
A549 = assay: SRB colorimetric cell growth inhibition assay; settings: for TGI: A549, NSCL, 48 hours exposure; for GI50 / CC50: Homo sapiens, A549, 48 h; for CC50: read-out: LC50
PANC1 = assay: SRB colorimetric cell growth inhibition assay; settings: for GI50 / CC50: Homo sapiens, PANC-1, 48 h; for CC50: read-out: LC50; for TGI: PANC1, pancreas, 48 hours exposure
HELA = assay: SRB colorimetric cell growth inhibition assay; settings: for TGI: HELA, cervix, 48 hours exposure; for GI50 / CC50: Homo sapiens, HeLa, 48 h; for CC50: read-out: LC50
HELA-APL = assay: SRB colorimetric cell growth inhibition assay; settings: for TGI: HELA-APL, cervix, Aplidine resistant, 48 hours exposure; for GI50 / CC50: Homo sapiens, 48 h; for CC50: read-out: LC50
HT29 = assay: SRB colorimetric cell growth inhibition assay; settings: for TGI: HT29, colon, 48 hours exposure; for GI50 / CC50: Homo sapiens, HT-29, 48 h; for CC50: read-out: LC50
IGROV-ET = assay: SRB colorimetric cell growth inhibition assay; settings: for GI50 / CC50: Homo sapiens, 48 h; for CC50: read-out: LC50; for TGI: IGROV-ET, ovary, 48 hours exposure
LOVO-DOX = assay: SRB colorimetric cell growth inhibition assay; settings: for GI50 / CC50: Homo sapiens, 48 h; for CC50: read-out: LC50; for TGI: LOVO-DOX, colon (MDR), 48 hours exposure
SK-MEL-28 = assay: SRB colorimetric cell growth inhibition assay; settings: for GI50 / CC50: Homo sapiens, SK-MEL-28, 48 h; for CC50: read-out: LC50; for TGI: SK-MEL-28, melanoma, 48 hours exposure
Streptococcus fecalis = settings: J. Org. Chem. 1992, 57, 3832-3835; cited from earlier work
Clostridium perfringens = settings: Tetrahedron 1994, 50, 3415-3426; cited from earlier work
Staphylococcus aureus = settings: cited from earlier work
Pseudomonas aeruginosa = settings: cited from earlier work
Bacteroides fragilis = settings: Tetrahedron 1994, 50, 3415-3426; cited from earlier work
[1] = system: Peptococcus assaccharolyticus; settings: Tetrahedron 1994, 50, 3415-3426; cited from earlier work
Escherichia coli = settings: cited from earlier work
[2] = J. Org. Chem. 1992, 57, 3832-3835
[3] = Tetrahedron 1994, 50, 3415-3426

Compound: CCCCCCC#C/C=C\CCCCCCCC1=NCCCN1CCCCNC(=N)N [Compound A]
- GI50 (SK-BR3): 789 nM
- CC50 (SK-BR3): 1810 nM
- TGI (SK-BR3): 1.20E−6 Molar
- GI50 (IGROV): 579 nM
- CC50 (IGROV): 5310 nM
- TGI (IGROV): 1.53E−6 Molar
- GI50 (LOVO): 475 nM
- CC50 (LOVO): 1410 nM
- TGI (LOVO): 8.17E−7 Molar
- GI50 (LN-caP; Homo sapiens, LNCaP, 48 h): 333 nM
- CC50 (LN-caP; Homo sapiens, LNCaP, 48 h, read-out: LC50): 1370 nM
- TGI (LN-caP; LN-caP, prostate, 48 hours exposure): 6.73E−7 Molar
- TGI (DU-145): 8.80E−7 Molar
- GI50 (DU-145): 424 nM
- CC50 (DU-145): 1830 nM
- TGI (A549): 3.61E−6 Molar
- GI50 (A549): 1220 nM
- CC50 (A549): 12500 nM
- GI50 (PANC1): 535 nM
- CC50 (PANC1): 2910 nM
- TGI (PANC1): 1.16E−6 Molar
- TGI (HELA): 2.42E−6 Molar
- GI50 (HELA): 801 nM
- CC50 (HELA): 1040 nM
- TGI (HELA-APL): 1.07E−6 Molar
- GI50 (HELA-APL): 540 nM
- CC50 (HELA-APL): 2110 nM
- TGI (HT29): 2.98E−6 Molar
- GI50 (HT29): 1010 nM
- CC50 (HT29): 8420 nM
- GI50 (IGROV-ET): 463 nM
- CC50 (IGROV-ET): 4420 nM
- TGI (IGROV-ET): 1.26E−6 Molar
- GI50 (LOVO-DOX): 1780 nM
- CC50 (LOVO-DOX): 13000 nM
- TGI (LOVO-DOX): 5.14E−6 Molar
- GI50 (SK-MEL-28): 649 nM
- CC50 (SK-MEL-28): 7660 nM
- TGI (SK-MEL-28): 2.49E−6 Molar

Compound: Phloeodictine B
- MIC (Streptococcus fecalis): > 15 µg/mL
- MIC (Clostridium perfringens): > 30 µg/mL
- MIC (Staphylococcus aureus; [2]): 3 µg/mL
- MIC (Staphylococcus aureus; [3]): 30 µg/mL
- MIC (Pseudomonas aeruginosa; [2]): > 30 µg/mL
- MIC (Bacteroides fragilis): > 30 µg/mL
- MIC [1]: > 30 µg/mL
- MIC (Escherichia coli; [2]): 30 µg/mL
- MIC (Escherichia coli; [3]): 30 µg/mL

Compound: N=C(N)NCCCCN1CCCN=C1CCCCCCCC=O [Compound B]
- GI50 (SK-BR3): > 9290 nM
- CC50 (SK-BR3): > 9290 nM
- TGI (SK-BR3): >9.29E−6 Molar
- GI50 (IGROV): > 9290 nM
- CC50 (IGROV): > 9290 nM
- TGI (IGROV): >9.29E−6 Molar
- GI50 (LOVO): > 9290 nM
- CC50 (LOVO): > 9290 nM
- TGI (LOVO): >9.29E−6 Molar
- TGI (DU-145): >9.29E−6 Molar
- GI50 (DU-145): > 9290 nM
- CC50 (DU-145): > 9290 nM
- TGI (A549): >9.29E−6 Molar
- GI50 (A549): > 9290 nM
- CC50 (A549): > 9290 nM
- GI50 (PANC1): > 9290 nM
- CC50 (PANC1): > 9290 nM
- TGI (PANC1): >9.29E−6 Molar
- TGI (HELA): >9.29E−6 Molar
- GI50 (HELA): > 9290 nM
- CC50 (HELA): > 9290 nM
- TGI (HELA-APL): >9.29E−6 Molar
- GI50 (HELA-APL): > 9290 nM
- CC50 (HELA-APL): > 9290 nM
- TGI (HT29): >9.29E−6 Molar
- GI50 (HT29): > 9290 nM
- CC50 (HT29): > 9290 nM
- GI50 (IGROV-ET): > 9290 nM
- CC50 (IGROV-ET): > 9290 nM
- TGI (IGROV-ET): >9.29E−6 Molar
- GI50 (LOVO-DOX): > 9290 nM
- CC50 (LOVO-DOX): > 9290 nM
- TGI (LOVO-DOX): >9.29E−6 Molar
- GI50 (SK-MEL-28): > 9290 nM
- CC50 (SK-MEL-28): > 9290 nM
- TGI (SK-MEL-28): >9.29E−6 Molar

Compound: Phloeodictine A
- MIC (Streptococcus fecalis): 5 µg/mL
- MIC (Clostridium perfringens): 30 µg/mL
- MIC (Staphylococcus aureus; [2]): 1 µg/mL
- MIC (Staphylococcus aureus; [3]): 3 µg/mL
- MIC (Pseudomonas aeruginosa; [2]): 10 µg/mL
- MIC (Pseudomonas aeruginosa; [3]): 30 µg/mL
- MIC (Bacteroides fragilis): 1 µg/mL
- MIC [1]: 10 µg/mL
- MIC (Escherichia coli; [2]): 1 µg/mL
- MIC (Escherichia coli; [3]): 3 µg/mL

From patent publication US20100216817A1, “Antitumoral Tetrahydro-Pyrimidines” (Pharma Mar SA, priority 2005, published 2010)
